Assay results: patent publication US5800838A, “Composition that inhibits or destroys at least one unicellular living organism containing fluorine F- and Lithium li+” (priority 1987, dated 1998)
Values after ≈ are worked out from the molar mass of the structure shown. Read-outs that look alike come from different tables or passages of the source.

Experiments:
Enterobacter = experiment: Concentrations of cefotaxime inhibiting 50% of the strains; type: cell-based
Experimental: (§1) The activity of CEFOTAXIME was tested, alone and then in the presence of lithium fluoride, with respect to pathogenic strains other than Pseudomonas aeruginosa.
(§2) The following table expresses the concentrations (mg/l) of cefotaxime inhibiting 50% of the strains.

Escherichia coli = experiment: as above; type: cell-based
Experimental: as §1, §2

Klebsiella = experiment: as above; type: cell-based
Experimental: as §1, §2

Serratia = experiment: as above; type: cell-based
Experimental: as §1, §2

Proteus morganii = experiment: as above; type: cell-based; settings: Morganella morganii; alone; F20; read-out: 50% inhibitory concentration
Experimental: as §1, §2

Pseudomonas aeruginosa [1] = experiment: MIC of antibiotics by microdilution in liquid medium on plates (Example 18); type: cell-based; settings: Pseudomonas aeruginosa, read-out: MIC (average MIC value)
Experimental: The unicellular living organism chosen for the trials is Pseudomonas aeruginosa (wild-type strain originating from hospital sources).
The same methodology as for Examples 11 and 12 was follows. Bacteriostatic analyses were performed with a number of antibiotics belonging to benzylpenicillins, and aminopenicillins, and first and second generation cephalosporins, namely:
The determination of the MIC was carried out by the microdilution method in liquid medium on plates. Aqueous solutions of each antibiotic are prepared in MUELLER HINION broth, to obtain dilutions in a geometric ratio of 2. The solvent is sterile double-distilled water.
The preparation of the bacterial inoculum is made with a culture of Pseudomonas aeruginosa, with agitation on a water bath at 37° C. for 4 to 6 hours, giving 10^6 bacteria/ml.
Three trials were performed per antibiotic and per bacterial inoculum. The trials were performed first with the antibiotics alone (trials a).sctn., and then with the addition of a dose of 1 mg/l of an aqueous solution of lithium fluoride (trials b).sctn. to the dilution of each one in every cup of every plate.

Staphylococcus aureus [2] = experiment: Antibiotic activity on hospital strains normally resistant to amoxicillin; type: cell-based; settings: read-out: 100% inhibitory concentration
staphylococcus aeurus = type: cell-based; settings: Fli 4 ppm
Experimental: Strains Gram+ and Gram- (wild-type hospital) having a resistant phenotype vis a vis standard firstly and secondly used antibiotherapy were experimented on activated antibiotics.
250 experiments were conducted on the following strains: Streptococcus group B, C, D, F, G, Staphylococcus aureus, Staphylococcus epidermitis, Klebsiella pneumoniae, Klebsiella spirochete, Klebsiella oxytoca, Proteus mirabilis, Serratia marcescens, Escherichia coli, Citrobacter freundii, Enterobacter cloacae, Enterobacter calcoaceticus, Salmonella spirochete, Salmonella typhimurium, Pseudomonas aeruginosa, Haemophilus influenzae, Haemophilus sphrophilus, Acinetobacter calcoaeticus. […]

Haemophilus influenzae = experiment: Antibiotic activity on hospital strains normally resistant to amoxicillin; type: cell-based
[3] = tested on: Haemophilus influenzae producing β-lactamase; experiment: Antibiotic activity of amoxicillin on hospital strains producing β-lactamase (Example 22); settings: 4 ppm amoxicillin in the presence of 1 ppm clavulanic acid
Klebsiella pneumoniae [4] = experiment: Antibiotic activity on hospital strains normally resistant to amoxicillin; type: cell-based; settings: read-out: 100% inhibitory concentration
[5] = tested on: Escherichia coli (TEM plasmid); experiment: microbe, parasite or virus in culture; type: cell-based
[6] = tested on: β-Haemolytic streptococcus; experiment: Antibiotic activity on hospital strains normally resistant to amoxicillin; type: cell-based; settings: read-out: 100% inhibitory concentration
salmonella spirochete = experiment: "Time killing curve", optical density at 600 nm; type: cell-based; settings: Fli 32 ppm
Experimental: (§3) The kinetics of the bacterial growth of serratia marcescens and salmonella spirochete has been studied with the "Time killing curve" methodology, for gentamicine (64 ppm) alone, Fli (32 ppm) and gentamicine (64 ppm) in presence of Fli (32 ppm). The bacterial growth is determined by spectrophotometric reading of the optical density for a wavelength of 600 nm.
(§4) The following table illustrates the optical density (1/100) obtained: […]

serratia marcescens [7] = experiment: "Time killing curve", optical density at 600 nm; type: cell-based; settings: Fli 32 ppm
Experimental: as §3, §4

spermatozoa = experiment: SANDERS-CRAMER total spermicidal test according to IPPF standards; type: cell-based; settings: alone
Klebsiella pneumoniae [8] = experiment: "chess" test, dilution in liquid medium, Trial 3; type: cell-based
Excerpt: (§5) Substance A was gentamicine
The strain was Klebsiella pneumoniae (wild-type hospital strain)

serratia marcescens [9] = experiment: MIC of gentamicine, inclined agar with concentration gradient; type: cell-based; settings: alone; SENSIBLE strains
Experimental: (§6) The strains used were wild-type hospital strains having a resistant phenotype as regards gentamicine: pseudomonas aeruginosa, proteus mirabilis, serratia marcescens.
(§7) The phenotype of the strains was determined by diffusion in gradient on selective agar. Then, each group of strains having the same phenotype (resistant or sensible) was seeded on inclined agar having a gradient of concentration of the composition.
(§8) This methodology is explained by SZYBALSKI and BRYSON in "Selection de mutants resistant aux antibiotiques", L'antibiogramme, Vigot, p. 259-260.
(§9) The results are shown in the following table illustrating the MIC of gentamicine (aminoglycoside antibiotic).
(§10) x/y means a concentration read between x ppm and y ppm.

proteus mirabilis [10] = experiment: as above; type: cell-based; settings: alone; SENSIBLE strains
Experimental: as §6, §7, §8, §9, §10

Pseudomonas aeruginosa [11] = experiment: as above; type: cell-based; settings: alone; SENSIBLE strains
Experimental: as §6, §7, §8, §9, §10

[12] = tested on: pseudomonas aeruginosa and Escherichia coli; type: cell-based
Excerpt: It is known that a strain develops a resistance against an antibiotic substance with which it is left in contact, by a phenotypical mutation procedure.
This phenomena has been studied on pseudomonas aeruginosa and Escherichia coli (wild-type hospital strains) which commonly develop resistance against aminosides. The antibiotic substance choosen was thus gentamicine which is an aminoside antibiotic.
And the growth of the resistance was studied with gentamicine alone, then with gentamicine in presence of Fli.
The trial was conducted on 12 days, and the MIC of gentamicine alone and of gentamicine in presence of Fli (4 ppm) was determined each day on transportplates in liquid medium with a serie of dilution in Mueller/Hinton agar.
The MBC (Minimal Bactericide Concentration) was also determined from the solution after determination of the MIC seeded on agar adapted to the strain. The MBC is read for a percentage of survivors less than 0,20%.

Pseudomonas aeruginosa [13] = experiment: "chess" test, dilution in liquid medium, Trial 4; type: cell-based
Excerpt: as §5
The strain was pseudomonas aeruginosa (wild-type hospital resistant strain)

Staphylococcus aureus [14] = tested on: Staphylococcus aureus
Experimental: Concentration series of two antibiotic substances A and B are prepared in the geometric ratio of 2 are combined and the following values are determined:
MIC B/A = minimal inhibiting concentration B in presence of A [formula]
The MIC of the bacteriostatic effect is read when the percentage of surviving strains is less or equal to 1%.
The combination of the substances A and B is synergistic as regards the bacteriostatic effect when FIC≤0,75. The combination is additive when FIC=1. The combination is insensible when 1<FIC≤2. The combination is antagonistic when FIC>2.
Substance A was tetracycline (concentration serie from 0,25 to 128 mg/l)
Substance B was Fli (concentration serie from 0,25 to 16 mg/l)
The strain was staphylococcus aureus (wild-type hospital resistant strain)

proteus mirabilis [15] = experiment: "chess" test, dilution in liquid medium, Trial 2; type: cell-based
Excerpt: as §5
The strain was a very resistant proteus mirabilis (wild-type hospital)

MAC COY cells = experiment: Cytotoxic activity with respect to MAC COY cells; settings: LiF at 1 mg/l; benzalkonium chloride under the conditions of the trials
[16] = read-out: 100% inhibitory concentration, alone
[17] = B (Fli) in presence of A (gentamicine)
[18] = alone, wild-type hospital resistant strain

Structure (SMILES): CO/N=C(\C(=O)N[C@@H]1C(=O)N2C(C(=O)O)=C(COC(C)=O)CS[C@H]12)c1csc(N)n1 [CEFOTAXIME, cefotaxime]
- IC50 (Enterobacter; alone, P49, read-out: 50% inhibitory concentration): 27.2 µg/mL (≈ 59.7 µM)
- IC50 (Enterobacter; alone, T45, read-out: 50% inhibitory concentration): 0.05 µg/mL (≈ 0.11 µM)
- IC50 (Enterobacter; in the presence of LiF at 1 mg/l, P49, read-out: 50% inhibitory concentration): 23.2 µg/mL
- IC50 (Enterobacter; in the presence of LiF at 1 mg/l, T45, read-out: 50% inhibitory concentration): 0.023 µg/mL
- IC50 (Escherichia coli; alone, K12 J53, read-out: 50% inhibitory concentration): 0.023 µg/mL (≈ 0.0505 µM)
- IC50 (Escherichia coli; alone, K12 PIP 55, read-out: 50% inhibitory concentration): 0.023 µg/mL (≈ 0.0505 µM)
- IC50 (Escherichia coli; alone, K12 PIP 111, read-out: 50% inhibitory concentration): 0.023 µg/mL (≈ 0.0505 µM)
- IC50 (Escherichia coli; alone, SOL, read-out: 50% inhibitory concentration): 0.18 µg/mL (≈ 0.395 µM)
- IC50 (Escherichia coli; in the presence of LiF at 1 mg/l, K12 J53, read-out: 50% inhibitory concentration): 0.01 µg/mL
- IC50 (Escherichia coli; in the presence of LiF at 1 mg/l, K12 PIP 55, read-out: 50% inhibitory concentration): 0.023 µg/mL
- IC50 (Escherichia coli; in the presence of LiF at 1 mg/l, K12 PIP 111, read-out: 50% inhibitory concentration): 0.023 µg/mL
- IC50 (Klebsiella; alone, 1103, read-out: 50% inhibitory concentration): 0.023 µg/mL (≈ 0.0505 µM)
- IC50 (Klebsiella; alone, U28, read-out: 50% inhibitory concentration): 0.28 µg/mL (≈ 0.615 µM)
- IC50 (Klebsiella; in the presence of LiF at 1 mg/l, 1103, read-out: 50% inhibitory concentration): 0.01 µg/mL
- IC50 (Klebsiella; in the presence of LiF at 1 mg/l, U28, read-out: 50% inhibitory concentration): 0.16 µg/mL
- IC50 (Serratia; alone, 1123, read-out: 50% inhibitory concentration): 0.076 µg/mL (≈ 0.167 µM)
- IC50 (Serratia; alone, MO1117, read-out: 50% inhibitory concentration): 0.3 µg/mL (≈ 0.659 µM)
- IC50 (Serratia; in the presence of LiF at 1 mg/l, 1123, read-out: 50% inhibitory concentration): 0.076 µg/mL
- IC50 (Serratia; in the presence of LiF at 1 mg/l, MO1117, read-out: 50% inhibitory concentration): 0.3 µg/mL
- IC50 (Proteus morganii): 0.01 µg/mL (≈ 0.022 µM)
- MIC (Pseudomonas aeruginosa [1]; + LiF 1 mg/l, strain lic R βLac^+ OXA): 16 µg/mL
- MIC (Pseudomonas aeruginosa [1]; + LiF 1 mg/l, strain lic R βLac^+ PSE): 16 µg/mL
- MIC (Pseudomonas aeruginosa [1]; + LiF 1 mg/l, strain lic R βLac^+ TEM): 32 µg/mL
- MIC (Pseudomonas aeruginosa [1]; + LiF 1 mg/l, strain lic R βLac^+ cephalosporinase): 256 µg/mL
- MIC (Pseudomonas aeruginosa [1]; + LiF 1 mg/l, strain lic S βLac^- (first column)): 8 µg/mL
- MIC (Pseudomonas aeruginosa [1]; + LiF 1 mg/l, strain lic S βLac^- (second column)): 16 µg/mL
- MIC (Pseudomonas aeruginosa [1]; alone, strain lic R βLac^+ OXA): 32 µg/mL
- MIC (Pseudomonas aeruginosa [1]; alone, strain lic R βLac^+ PSE): 32 µg/mL
- MIC (Pseudomonas aeruginosa [1]; alone, strain lic R βLac^+ TEM): 32 µg/mL
- MIC (Pseudomonas aeruginosa [1]; alone, strain lic R βLac^+ cephalosporinase): 256 µg/mL
- MIC (Pseudomonas aeruginosa [1]; alone, strain lic S βLac^- (first column)): 16 µg/mL
- MIC (Pseudomonas aeruginosa [1]; alone, strain lic S βLac^- (second column)): 32 µg/mL

Structure (SMILES): CC1(C)S[C@@H]2[C@H](NC(=O)[C@H](N)c3ccc(O)cc3)C(=O)N2[C@H]1C(=O)O [amoxicillin]
- MIC (Staphylococcus aureus [2]; alone): 32 µg/mL (≈ 87.6 µM)
- MIC (Staphylococcus aureus [2]; in the presence of LiF 8 ppm): 8 µg/mL
- phenotype in presence of Fli (staphylococcus aeurus): the resistant phenotype was not changed
- MIC (Haemophilus influenzae; in the presence of LiF 8 ppm, read-out: 100% inhibitory concentration): 32 µg/mL
- MIC (Haemophilus influenzae; [16]): > 128 µg/mL
- time to inhibition of the strains to 100% [3]: 24 h
- MIC (Klebsiella pneumoniae [4]; alone): 64 µg/mL (≈ 175 µM)
- MIC (Klebsiella pneumoniae [4]; in the presence of LiF 8 ppm): 2 µg/mL
- MIC [5, 16]: > 128 µg/mL
- MIC ([5]; read-out: 100% inhibitory concentration, in the presence of LiF 8 ppm): 32 µg/mL
- MIC ([6]; alone): 16 µg/mL (≈ 43.8 µM)
- MIC ([6]; in the presence of LiF 8 ppm): 4 µg/mL

Structure (SMILES): [F-].[Li+] [lithium fluoride]
- optical density (1/100) (salmonella spirochete; 3 h 00, gentamicine 64 ppm): 14 1/100
- optical density (1/100) (salmonella spirochete; 24 h 00, gentamicine 64 ppm): 20 1/100
- optical density (1/100) (serratia marcescens [7]; 3 h 00, gentamicine 64 ppm): 13 1/100
- optical density (1/100) (serratia marcescens [7]; 6 h 00, gentamicine 64 ppm): 15 1/100
- optical density (1/100) (serratia marcescens [7]; 24 h 00, gentamicine 64 ppm): 18 1/100
- MIC (spermatozoa): ~3 ppm
- MIC, equivalent in % (spermatozoa): ~0.0003%
- MIC B/A (Klebsiella pneumoniae [8]; [17]): 32 µg/mL
- MIC alone (MIC A, MIC B) (Klebsiella pneumoniae [8]; alone, wild-type hospital strain): 128 µg/mL
- MIC (serratia marcescens [9]): > 32 ppm or mg/l
- MIC (proteus mirabilis [10]): > 32 ppm or mg/l
- MIC (Pseudomonas aeruginosa [11]): > 32 ppm or mg/l
- effect on creation of resistance [12]: retards the creation of the resistance and reduces to the half the capability of each strain for developping such resistances
- resistance developed by the strain ([12]; against Fli, 12 days): no resistance is developped
- MIC B/A (Pseudomonas aeruginosa [13]; [17]): 16 µg/mL
- MIC alone (MIC A, MIC B) (Pseudomonas aeruginosa [13]; [18]): 128 µg/mL
- MIC B/A (Staphylococcus aureus [14]; B (Fli) in presence of A (tetracycline)): 16 µg/mL
- MIC alone (MIC A, MIC B) (Staphylococcus aureus [14]; [18]): 64 µg/mL
- MIC B/A (proteus mirabilis [15]; [17]): 16 µg/mL
- MIC alone (MIC A, MIC B) (proteus mirabilis [15]; alone, very resistant wild-type hospital strain): 128 µg/mL
- toxic activity (MAC COY cells): does not have toxic activity
